Test [1] relates to NK cells. The experiment in a line: NKp30 expression on NK cells by flow cytometry. It counts as cell-based, human. As to conditions: NK cells after 3 day culture, 100 ng/ml. Here is the method:
In order to investigate the mechanism behind these differences, the same NK cells were purified and cryopreserved immediately after the 3 day culture period. The cells were thawed, washed, and stained for NCR. NKp30, with expression levels determined via flow cytometry. The level of expression was also determined using “ex vivo” samples, and NK cells that were cultured, without exposure to targets.
Background: Flow cytometry measures light scatter and fluorescence of single cells or particles in a stream.

The subject of the next test is Human NK cells. The experiment in a line: IFN-γ ELISA of purified NK cells. The format is cell-based. Here is the method:
A total of 1×10^5 highly purified human NK cells were cultured for 20 hours in medium supplemented with 20 U/ml IL-2, and 10 ng/ml IL-12. Either human recombinant activin-A, or TGF-β was added to the cultures, at concentrations of 10, 50 and 100 ng/ml. Supernatants were then tested for IFN-γ via ELISA, using standard methods. In these experiments 1×10^5 highly purified human NK cells were cultured as above, but were cultured with Poly I:C (10 μg/ml), or LPS (100 ng/ml), with or without 10, 50, or 100 ng/ml of recombinant human activin-A. In some cases, the known compound “SB431542,” which blocks activin-A binding to receptors was added. IFN-γ was then measured via ELISA, or by intracellular cytokine staining after 16 hours of culture, via addition of 1 μg/ml BFA, to prevent cytokine release. The impact of activin-A on production of IFN-γ by NK cells, in the absence of dendritic cells, was ascertained. Purified NK cells (1×10^5) were cultured in 96 well-plants, in media that was supplemented with 20 U/ml IL-2 and 10 ng/ml, IL-12, in the absence of, or with increasing concentrations of either activin-A, or TGF-β. Culture supernatants were assayed for IFN-γ after 24 hours of culture, using ELISAs, as described supra. As in the prior experiments, 1×10^5 purified NK cells were cultured in media supplemented with IL-2 only, or IL-2 plus IL-12, either with or without one of poly I:C or LPS, in the presence or absence of increased levels of activin-A.
For orientation: In an ELISA, binding on a coated surface is turned into a signal by an enzyme label.

For test [2], the system named is NK cells. The experiment in a line: Multiplex cytokine and chemokine array of NK cell supernatants. It counts as cell-based, human. As to conditions: activated NK cells. Here is the method:
The analysis reported supra was extended to an analysis of the supernatants produced during the various cell culture experiments. A multiplex array system for chemokines and cytokines were used, as was a standard ELISA for measuring IFN-γ. Bead arrays were used to quantify each of IFN-γ, IL-1 IL-6, IL-8, IL-10, TNF-α, GM-CSF, IP-10, MCP-1, MIP-1α, and 1β. Levels of production were measured using standard methodologies.

For activin-A, in the test on NK cells [1], the NKp30 expression entry is reported as “a very limited effect”. Besides, in the test on Human NK cells (NK cells stimulated with Poly I:C, activin-A 10, 50, 100 ng/ml), the IFN-γ production entry is reported as “suppressed IFN-γ production”. Besides, in the test with Human NK cells (NK cells, IL-2 and IL-12, 20 hours, 10, 50, 100 ng/ml), the IFN-γ production entry was “as effective as TGF-β in suppressing the production of IFN-γ”. Moreover, the IFN-γ production result with Human NK cells (NK cells, IL-2 and IL-12, 24 hours, increasing concentrations) was “as potent as TGF-β in inhibiting IFN-γ production”. In addition, the IFN-γ production result in the test with Human NK cells (NK cells, IL-2 plus IL-12 with poly I:C or LPS, increased levels of activin-A) is “suppressed by addition of activin-A, in a concentration dependent manner”. Moreover, in the test with NK cells [2], the GM-CSF production result was “suppressed”, the “IFN-γ production (bead array)” value is “suppressive effect”, the IL-1β production result was “suppressed” and the IL-6 production entry is “suppressed”. Also, in the test with NK cells [2], the IL-8 production result is “suppressing”; the IL-10 production entry is “increased the low amounts of IL-10 that had been produced, significantly”; the IP-10 production result was “suppressing”; the MIP-1α production result is “suppressing”. Further, in the test on NK cells [2], the MIP-1β production entry is “suppressing” and the TNF-α production result was “suppressed”.
